Data as given in DBAASP.
Converted amounts (≈) assume the structure as drawn.

Tests used:
Assay in all cases: ≥ marks a high value that may be exact or a test limit, other limits are often not marked, values filed in µg/mL are converted to µM
[1] = tested on: Escherichia coli JW0013
[2] = tested on: Staphylococcus aureus ATCC 25923
[3] = tested on: Escherichia coli UB1005
[4] = tested on: Pseudomonas aeruginosa PAO1
[5] = tested on: Pseudomonas aeruginosa CMCCB 10104
[6] = tested on: Escherichia coli ATCC 25922
[7] = tested on: Candida albicans ATCC 2002
[8] = tested on: Escherichia coli DH5alpha
[9] = tested on: Pseudomonas aeruginosa ATCC 27853

| MIC [1] | MIC [2] | MIC [3] | MIC [4] | MIC [5] | MIC [6] | MIC [7] | MIC [8] | MIC [9] | Compound |
| --- | --- | --- | --- | --- | --- | --- | --- | --- | --- |
| 1.36 µM (≈ 3.3 µg/mL) | 1.64 µM (≈ 4 µg/mL) | 0.247 µM (≈ 0.6 µg/mL) | 26.3 µM (≈ 64 µg/mL) |  |  |  |  |  | CC[C@H](C)[C@H](NC(=O)[C@H](CCCN=C(N)N)NC(=O)[C@H](CCCN=C(N)N)NC(=O)[C@@H]1CCCN1C(=O)[C@@H]1CCCN1C(=O)[C@H](CCCN=C(N)N)NC(=O)[C@@H]1CCCN1C(=O)[C@H](CCCN=C(N)N)NC(=O)[C@@H]1CCCN1C(=O)[C@H](CC(C)C)NC(=O)[C@H](Cc1ccc(O)cc1)NC(=O)[C@@H]1CCCN1C(=O)[C@@H]1CCCN1C(=O)[C@H](CCCCN)NC(=O)[C@H](CCCN=C(N)N)NC(=O)[C@@H](N)C(C)C)C(=O)N[C@@H](Cc1ccc(O)cc1)C(=O)N[C@@H](CC(N)=O)C(=O)N[C@@H](CCCN=C(N)N)C(N)=O [VRKPPYLPRPRPPRRIYNR] |
|  | 2.53 µM (≈ 5.1 µg/mL) |  |  | 5.05 µM (≈ 10.2 µg/mL) | 2.53 µM (≈ 5.1 µg/mL) | 2.53 µM (≈ 5.1 µg/mL) |  |  | CC[C@H](C)[C@H](NC(=O)CN)C(=O)N[C@@H](CC(C)C)C(=O)NCC(=O)N[C@@H](CC(N)=O)C(=O)N[C@H](C(=O)N[C@H](C(=O)NCC(=O)N[C@@H](CCSC)C(=O)NCC(=O)N[C@@H](CCCCN)C(=O)N[C@@H](CCC(N)=O)C(=O)N[C@H](C(=O)N[C@H](C(=O)N[C@H]1CSSC[C@@H](C(=O)O)NC(=O)[C@H](CC(C)C)NC(=O)CNC(=O)[C@H](CO)NC(=O)[C@H](CC(C)C)NC(=O)CNC1=O)C(C)C)C(C)C)C(C)C)[C@@H](C)CC [GILGNIVGMGKQVVCGLSGLC] |
|  | 5.57 µM (≈ 21.6 µg/mL) |  |  | 5.57 µM (≈ 21.6 µg/mL) | 2.78 µM (≈ 10.8 µg/mL) | 2.78 µM (≈ 10.8 µg/mL) |  |  | CC[C@H](C)[C@H](NC(=O)[C@H](CC(C)C)NC(=O)[C@H](CCC(N)=O)NC(=O)[C@@H](NC(=O)[C@H](C)NC(=O)CNC(=O)[C@H](CCCCN)NC(=O)[C@@H](NC(=O)[C@H](CC(C)C)NC(=O)[C@@H](NC(=O)[C@H](Cc1ccccc1)NC(=O)[C@@H](NC(=O)CN)C(C)C)[C@@H](C)O)[C@@H](C)CC)[C@@H](C)O)C(=O)NCC(=O)N[C@@H](CCCCN)C(=O)N[C@H](C(=O)N[C@@H](CC(C)C)C(=O)NCC(=O)N[C@@H](CCCCN)C(=O)N[C@@H](CCC(=O)O)C(=O)N[C@@H](CC(C)C)C(=O)NCC(=O)N[C@@H](CCCCN)C(=O)N[C@H](C(=O)NCC(=O)N[C@@H](CC(C)C)C(=O)N[C@@H](CCC(=O)O)C(=O)N[C@@H](CC(C)C)C(=O)N[C@@H](CCSC)C(=O)N[C@@H](C)C(=O)N[C@H]1CSSC[C@@H](C(=O)O)NC(=O)[C@H](CCC(N)=O)NC(=O)[C@H](CC(N)=O)NC(=O)[C@H]([C@@H](C)O)NC(=O)[C@H]([C@@H](C)CC)NC(=O)[C@H](CCCCN)NC1=O)[C@@H](C)O)[C@@H](C)O [GVFTLIKGATQLIGKTLGKELGKTGLELMACKITNQC] |
|  | 0.742 µM (≈ 1.6 µg/mL) |  |  | 1.48 µM (≈ 3.2 µg/mL) | 1.48 µM (≈ 3.2 µg/mL) | 0.742 µM (≈ 1.6 µg/mL) | ≥ 50 µM | 50 µM (≈ 108 µg/mL) | CC[C@H](C)[C@H](NC(=O)[C@H](Cc1cnc[nH]1)NC(=O)[C@H](C)NC(=O)[C@H](CCSC)NC(=O)[C@H](CC(N)=O)NC(=O)[C@H](CCCCN)NC(=O)[C@H](CCCCN)NC(=O)[C@@H](NC(=O)[C@@H](NC(=O)[C@H](CCCCN)NC(=O)[C@H](C)NC(=O)[C@H](Cc1ccccc1)NC(=O)[C@H](CC(C)C)NC(=O)[C@H](CCCCN)NC(=O)[C@@H]1CCCN1C(=O)[C@H](CC(C)C)NC(=O)[C@@H](N)Cc1ccccc1)[C@@H](C)CC)[C@@H](C)O)C(=O)N[C@@H](CCCN=C(N)N)C(=O)O [FLPKLFAKITKKNMAHIR] |
|  | 0.349 µM (≈ 1.7 µg/mL) |  |  | 0.699 µM (≈ 3.4 µg/mL) | 0.699 µM (≈ 3.4 µg/mL) | 0.349 µM (≈ 1.7 µg/mL) |  |  | CC[C@H](C)[C@H](NC(=O)CNC(=O)[C@H](CCCCN)NC(=O)CNC(=O)[C@H](C)NC(=O)[C@H](Cc1ccccc1)NC(=O)[C@H](CCCCN)NC(=O)[C@H](CO)NC(=O)[C@H](Cc1ccccc1)NC(=O)[C@H](CC(C)C)NC(=O)CN)C(=O)N[C@@H](CCCCN)C(=O)N[C@@H](CC(N)=O)C(=O)N[C@@H](Cc1ccccc1)C(=O)N[C@@H](CC(C)C)C(=O)N[C@H](C(=O)N[C@@H](CCCCN)C(=O)NCC(=O)N[C@H](C(=O)N[C@@H](CCCCN)C(=O)N[C@@H](Cc1cnc[nH]1)C(=O)N[C@H](C(=O)NCC(=O)N[C@@H](CCCCN)C(=O)N[C@@H](CCC(=O)O)C(=O)N[C@H](C(=O)NCC(=O)N[C@@H](CCSC)C(=O)N[C@@H](CC(=O)O)C(=O)N[C@H](C(=O)N[C@H](C(=O)N[C@@H](CCCN=C(N)N)C(=O)N[C@H](C(=O)NCC(=O)N[C@H](C(=O)N[C@@H](CC(=O)O)C(=O)N[C@H](C(=O)N[C@@H](C)C(=O)NCC(=O)N[C@H]1CSSC[C@@H](C(=O)O)NC(=O)[C@H](CCC(=O)O)NC(=O)CNC(=O)[C@H](CCCCN)NC(=O)[C@H]([C@@H](C)CC)NC(=O)[C@H](CCCCN)NC1=O)C(C)C)[C@@H](C)CC)[C@@H](C)O)[C@@H](C)CC)C(C)C)C(C)C)[C@@H](C)CC)C(C)C)[C@@H](C)CC [GLFSKFAGKGIKNFLIKGVKHIGKEVGMDVIRTGIDVAGCKIKGEC] |
|  | 2.92 µM (≈ 5.79 µg/mL) |  |  | 11.6 µM (≈ 23 µg/mL) | 5.79 µM (≈ 11.5 µg/mL) | 5.79 µM (≈ 11.5 µg/mL) |  |  | CC[C@H](C)[C@H](NC(=O)CNC(=O)[C@H](CO)NC(=O)[C@H](CC(C)C)NC(=O)[C@@H](NC(=O)CN)[C@@H](C)CC)C(=O)N[C@@H](CC(C)C)C(=O)NCC(=O)N[C@H](C(=O)NCC(=O)N[C@@H](CCCCN)C(=O)N[C@@H](CCCCN)C(=O)N[C@@H](CC(C)C)C(=O)N[C@H](C(=O)N[C@H]1CSSC[C@@H](C(=O)O)NC(=O)[C@H](CC(C)C)NC(=O)CNC(=O)[C@H](CO)NC(=O)[C@H](CC(C)C)NC(=O)CNC1=O)C(C)C)C(C)C [GILSGILGVGKKLVCGLSGLC] |
|  | 5.11 µM (≈ 12.4 µg/mL) |  |  | 5.11 µM (≈ 12.4 µg/mL) | 2.55 µM (≈ 6.2 µg/mL) | 5.11 µM (≈ 12.4 µg/mL) |  |  | CSCC[C@H](NC(=O)[C@H](CCC(=O)O)NC(=O)[C@H](C)NC(=O)[C@H](C)NC(=O)[C@@H](NC(=O)CNC(=O)[C@H](C)NC(=O)[C@@H](NC(=O)[C@H](Cc1ccccc1)NC(=O)[C@H](C)NC(=O)[C@@H](N)CC(C)C)C(C)C)C(C)C)C(=O)N[C@@H](CCSC)C(=O)N[C@@H](CCC(N)=O)C(=O)N[C@@H](Cc1cnc[nH]1)C(=O)N[C@H](C(=O)N[C@@H](Cc1ccc(O)cc1)C(=O)N[C@H]1CSSC[C@@H](C(=O)O)NC(=O)[C@H](CCCCN)NC(=O)[C@H](CCCCN)NC(=O)[C@H](CO)NC(=O)[C@H](C)NC(=O)[C@H](C)NC1=O)C(C)C [LAFVAGVAAEMMQHVYCAASKKC] |
|  | 1.73 µM (≈ 5.8 µg/mL) |  |  | 3.46 µM (≈ 11.6 µg/mL) | 1.73 µM (≈ 5.8 µg/mL) | 3.46 µM (≈ 11.6 µg/mL) |  |  | CC[C@H](C)[C@H](NC(=O)[C@@H](NC(=O)[C@H](CC(=O)O)NC(=O)[C@H](CC(C)C)NC(=O)[C@H](CC(C)C)NC(=O)CN)[C@@H](C)O)C(=O)N[C@@H](CCCCN)C(=O)N[C@@H](CC(N)=O)C(=O)N[C@@H](CCSC)C(=O)N[C@@H](C)C(=O)N[C@@H](CC(C)C)C(=O)N[C@@H](CC(N)=O)C(=O)N[C@@H](C)C(=O)N[C@@H](C)C(=O)N[C@@H](CCCCN)C(=O)N[C@@H](CO)C(=O)N[C@@H](C)C(=O)NCC(=O)N[C@H](C(=O)N[C@@H](CO)C(=O)N[C@H](C(=O)N[C@@H](CC(C)C)C(=O)N[C@@H](CC(N)=O)C(=O)N[C@@H](CO)C(=O)N[C@@H](CC(C)C)C(=O)N[C@@H](CO)C(=O)N[C@H]1CSSC[C@@H](C(=O)O)NC(=O)[C@H]([C@@H](C)O)NC(=O)[C@H](CCCCN)NC(=O)[C@H](CO)NC(=O)[C@H](CC(=O)O)NC(=O)[C@H](CCCCN)NC1=O)C(C)C)C(C)C [GLLDTIKNMALNAAKSAGVSVLNSLSCKDSKTC] |
|  | 1.97 µM (≈ 6.6 µg/mL) |  |  | 1.97 µM (≈ 6.6 µg/mL) | 3.93 µM (≈ 13.2 µg/mL) | 1.97 µM (≈ 6.6 µg/mL) |  |  | CC[C@H](C)[C@H](NC(=O)[C@H](C)NC(=O)[C@H](CC(C)C)NC(=O)[C@H](CC(N)=O)NC(=O)[C@H](CCCCN)NC(=O)[C@H](CC(C)C)NC(=O)[C@@H](NC(=O)[C@H](CC(=O)O)NC(=O)[C@H](CC(C)C)NC(=O)[C@H](Cc1ccccc1)NC(=O)[C@@H](N)CO)[C@@H](C)O)C(=O)N[C@@H](CO)C(=O)N[C@@H](C)C(=O)N[C@@H](C)C(=O)N[C@@H](CCCCN)C(=O)NCC(=O)N[C@@H](C)C(=O)NCC(=O)N[C@@H](CCC(N)=O)C(=O)N[C@@H](CO)C(=O)N[C@H](C(=O)N[C@@H](CC(C)C)C(=O)N[C@@H](CO)C(=O)N[C@H](C(=O)N[C@@H](CC(C)C)C(=O)N[C@@H](CO)C(=O)N[C@H]1CSSC[C@@H](C(=O)O)NC(=O)[C@H]([C@@H](C)O)NC(=O)[C@H](CCC(=O)O)NC(=O)[C@H](CO)NC(=O)[C@H](CC(C)C)NC(=O)[C@H](CCCCN)NC1=O)[C@@H](C)O)C(C)C [SFLDTLKNLAISAAKGAGQSVLSTLSCKLSETC] |
| 1.97 µM (≈ 4.8 µg/mL) |  |  |  |  |  |  |  |  | CC[C@H](C)[C@H](NC(=O)[C@H](CCCN=C(N)N)NC(=O)[C@H](CCCN=C(N)N)NC(=O)[C@@H]1CCCN1C(=O)[C@@H]1CCCN1C(=O)[C@H](CCCN=C(N)N)NC(=O)[C@H](Cc1ccccc1)NC(=O)[C@H](CCCN=C(N)N)NC(=O)[C@@H]1CCCN1C(=O)[C@H](CC(C)C)NC(=O)[C@H](Cc1ccc(O)cc1)NC(=O)[C@@H]1CCCN1C(=O)[C@@H]1CCCN1C(=O)[C@H](CCCCN)NC(=O)[C@H](CC(=O)O)NC(=O)[C@@H](N)C(C)C)C(=O)N[C@@H](Cc1ccc(O)cc1)C(=O)N[C@@H](CC(N)=O)C(=O)N[C@@H](CCCN=C(N)N)C(N)=O [VDKPPYLPRFRPPRRIYNR] |
| 2.06 µM (≈ 4.8 µg/mL) |  |  |  |  |  |  |  |  | CC[C@H](C)[C@H](NC(=O)[C@H](CCCN=C(N)N)NC(=O)[C@H](CCCN=C(N)N)NC(=O)[C@@H]1CCCN1C(=O)[C@@H]1CCCN1C(=O)[C@H](CCCN=C(N)N)NC(=O)[C@@H]1CCCN1C(=O)[C@H](CCCN=C(N)N)NC(=O)[C@@H]1CCCN1C(=O)[C@H](CC(C)C)NC(=O)[C@@H](NC(=O)[C@@H]1CCCN1C(=O)[C@@H]1CCCN1C(=O)[C@H](CCCCN)NC(=O)[C@H](CC(=O)O)NC(=O)[C@@H](N)C(C)C)C(C)C)C(=O)N[C@@H](Cc1ccc(O)cc1)C(=O)N[C@@H](CC(N)=O)C(=O)N[C@@H](CCCN=C(N)N)C(N)=O [VDKPPVLPRPRPPRRIYNR] |
